What is called MTD is the largest dose that counted as tolerated. Usually IC50 stands for the concentration that inhibits the measured activity by half.

This note sets out measurements from publication PMC13095408, “DBeQ derivative targets vacuolar protein sorting 4 functions in cancer cells and suppresses tumor growth in mice” (The Journal of Pharmacology and Experimental Therapeutics, 2025).

The structures appear in SMILES notation.

The nature of series [1]: Acute dose MTD study. Conditions: both sexes, C57BL/6J, mouse, in vivo, ip, fixed daily doses 5, 10, 15, 20 mg/kg, B6 mice; read-out: acute dose MTD (tolerated dose). The method, then:
All animal studies were performed in accordance with the guidelines of the Institutional Animal Care and Use Committee at the Penn State College of Medicine (IACUC # PRAMS201145989). To determine the maximum tolerated dose (MTD) of 4-107, escalating and acute dose studies were performed. The escalating MTD study used an intra-animal design where each mouse received daily doses of 4-107 that increased 50% each day from a starting dose of 5 mg/kg. Six female C57BL/6J (B6) (The Jackson Laboratory; 000664) were administered 4-107 either orally via oral gavage or via intraperitoneal injection with 3 mice per group. The acute MTD study had groups of mice receive daily consistent doses of 4-107 i.p. Here, B6 mice were administered 4-107 at either 5 (n = 4; 2 males [M], 2 females [F]), 10 (n = 4; 2 M, 2 F), 15 (n = 5; all M), or 20 mg/kg (n = 5; all M). In both studies, 4-107 dissolved in DMSO was mixed into 30% propylene glycol, 5% Tween 80, and 65% of 5% dextrose in water (PTD [vehicle]) with a final DMSO concentration of ≤ 3%. […] BCS was determined by posture and prominence of skeletal features upon visual inspection and palpation, where BCS < 2 indicated a hunched posture and emaciation. […] The MTD was determined as the highest dose of 4-107 administered without mice reaching the toxicity endpoints.

Series [2] deals with T1, recombinant human VCP.
T1 construct: His (N); host or cells: Escherichia coli BL21(DE3)
Description: VCP ATPase activity, EnzChek Phosphate assay. The class given is biochemical. Conditions: 0.5 μM enzyme. The method, then: (§1) VPS4B and VCP ATPase activities were measured using the EnzChek Phosphate assay for the quantification of released phosphate. Assay buffers were based on literature precedents ([Cupido et al, 2019], [2021]) as follows: VPS4B buffer (20 mM HEPES-KOH, pH 7.4, 25 mM KOAc, 2 mM MgCl2, 5 mM (NH4)2SO4, 0.5 mM CaCl2, 2.5 mM DTT, 0.1 mg/mL BSA, 0.005% v/v Triton X-100), VCP buffer (20 mM HEPES-NaOH, pH 7.4, 20 mM NaCl, 10 mM MgCl2, 5 mM (NH4)2SO4, 0.5 mM CaCl2, 2.5 mM DTT, 0.1 mg/mL BSA, 0.005% v/v Triton X-100). In black clear-bottom 384-well plates, 22.5 μL of 5% DMSO or 40× test compounds diluted in the respective assay buffer was added to each well. ATPases were diluted to 1 μM in the respective buffers containing 2× EnzChek Phosphate assay coupling reagents of 400 μM MESG and 2 U of PNP, then 25 μL was added to each well. Plates were mixed at 1000 rpm for 30 minutes at RT while being protected from light. The reaction was initiated by adding 2.5 μL of 20 mM MgATP or water followed by mixing at 1200 rpm for 30 seconds at RT. Plates were measured at 360 nm using a CLARIOstar plate reader (BMG LABTECH) for 20 minutes at 37 °C. ATPase activity was calculated as the amount of phosphate released over a 5-minute interval under linear initial velocity conditions. The remaining ATPase activity was calculated by normalizing compound-treated activity values to the DMSO control. IC50 was calculated by fitting normalized values to a sigmoidal dose-response curve with Hill slope = −1 using Graph Pad Prism 10.0.
(§2) To identify VPS4i, we developed enzyme- and cell-based VPS4 functional assays to serve as VPS4i-screening platforms. For the enzyme-based assay, we used the colorimetric EnzChek Phosphate assay that detects free phosphate with the advantage of continuous measurement of ATP hydrolysis over time. […] Due to the high sequence and structural similarity of AAA-ATPases, we also established a VCP ATPase assay to evaluate hit selectivity. […] For the cell-based assay, our approach was based on how VPS4 inhibition causes the accumulation of ESCRT-III ([Babst et al, 1998]; [Katoh et al, 2003]). We used an N-terminal GFP-tagged CHMP4B reporter system because it is the most abundant ESCRT-III subunit ([Katoh et al, 2004]; [Teis et al, 2008]). Our aim was to test compounds under short-term serum and amino acid starvation to stimulate ESCRT activity for easier detection of inhibitors ([Takahashi et al, 2018], [2019]). […] Overall, we established 2 systems for VPS4i screening, a VPS4B ATPase activity assay and a GFP-CHMP4B accumulation cell-based assay.

Series [3] has as its target T2, recombinant human VCP (Rattus norvegicus, UniProt P46462).
T2 construct: His (N); host or cells: Escherichia coli BL21(DE3)
Nature of the series: VCP ATPase activity, EnzChek Phosphate assay. The class given is biochemical. Here is the method: as §1, §2

Series [4] deals with GFP-CHMP4B- and mCherry-LGALS3-expressing U2OS cells. Description: mCherry-LGALS3 accumulation, endolysosomal membrane integrity (HCM). In kind it is cell-based. To be noted: 2 μM 4-107, starved, 2 hours. The method, then:
Live-cell fluorescence imaging and analysis were performed using the CellInsight CX7 LZR high-content screening platform with Onstage Incubator (Thermo Scientific; 37 °C, 5% CO2, 20% O2, 60% humidity). SM was acclimatized at 37 °C and 5% CO2 for at least 30 minutes prior to all experiments for pH equilibration. For cell-based VPS4i screen, U2OS cells stably expressing N-terminal GFP-tagged charged multivesicular body protein 4B (GFP-CHMP4B) were cultured in black clear-bottom 96-well plates (Corning; 3603) at a density of 6000 cells/well. Cells were stained with Hoechst 33342 (1:1000) for 15 minutes at 37 °C, rinsed with 1× Dulbecco's phosphate-buffered saline (DPBS), and treated with SM containing 0.1% DMSO or 1 μM test compounds. Plates were then scanned using the 20× objective for 1 hour with ≥100 cells/well across 6 fields/well. Fluorescence intensity of GFP-CHMP4B foci per cell for each compound was normalized to that of 4-107. For all other assays, the cells were cultured overnight in black glass-bottom 96-well plates (Cellvis; P96-1.5H-N) then stained, rinsed, and treated with SM containing the indicated compounds (0.1% DMSO or 0.1% DMSO/0.1% ethanol [vehicle] final). Plates were scanned using the 20× NA .70 objective at the indicated intervals with ≥ 300 cells/well across 3 fields/well. […]

T2 sequence (P46462 2-806 limits assumed): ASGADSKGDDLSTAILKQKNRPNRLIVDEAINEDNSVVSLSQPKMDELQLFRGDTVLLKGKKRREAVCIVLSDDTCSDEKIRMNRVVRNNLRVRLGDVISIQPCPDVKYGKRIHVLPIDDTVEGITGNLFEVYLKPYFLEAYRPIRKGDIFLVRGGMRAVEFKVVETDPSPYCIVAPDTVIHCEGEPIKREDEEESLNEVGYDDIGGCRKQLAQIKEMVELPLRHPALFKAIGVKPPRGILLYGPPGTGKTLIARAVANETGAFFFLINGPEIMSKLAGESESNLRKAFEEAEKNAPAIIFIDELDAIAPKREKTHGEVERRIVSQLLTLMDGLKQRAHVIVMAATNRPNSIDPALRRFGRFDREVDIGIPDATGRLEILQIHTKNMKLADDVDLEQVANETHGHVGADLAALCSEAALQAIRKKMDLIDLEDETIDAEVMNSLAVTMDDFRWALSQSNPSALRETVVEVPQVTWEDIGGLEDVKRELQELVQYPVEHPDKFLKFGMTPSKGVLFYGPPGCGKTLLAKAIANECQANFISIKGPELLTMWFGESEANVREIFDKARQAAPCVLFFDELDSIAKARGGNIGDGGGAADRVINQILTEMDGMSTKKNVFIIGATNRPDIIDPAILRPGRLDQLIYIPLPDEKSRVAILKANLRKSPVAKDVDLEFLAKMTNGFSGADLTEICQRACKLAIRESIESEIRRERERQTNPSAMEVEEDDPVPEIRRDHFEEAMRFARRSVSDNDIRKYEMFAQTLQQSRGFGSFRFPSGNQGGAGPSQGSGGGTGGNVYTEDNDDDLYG
T1 sequence (P46462 2-806 limits assumed): as above

As to `COc1cccc2c(NCc3ccccc3)nc(NCc3ccccc3)nc12` [Compound 4-107, N^2,N^4-dibenzyl-8-methoxyquinazoline-2,4-diamine], in series [1], the MTD was found to be 5 mg/kg. In addition, the IC50 in series [2] amounted to 8.6 ± 3.9 µM. For the same compound, the “VCP ATPase (% DMSO)” value is recorded as 68.48 ± 2.85 % DMSO in series [3] (remaining ATPase activity, screened at 5 μM, mean ± SD, Table 2) and 68.48 ± 2.02 % DMSO in series [3] (screened at 5 µM, mean ± S.D., Supplemental Table 2). Also, the “mCherry-LGALS3 signals (endolysosomal membrane integrity)” value in series [4] is reported as “increase in mCherry-LGALS3 signals”.
